Source: patent publication US8481597B2, “Use of (-) (3-trihalomethylphenoxy) (4-halophenyl) acetic acid derivatives for treatment of insulin resistance, type 2 diabetes, hyperlipidemia and hyperuricemia” (Metabolex, Inc., priority 1999, dated 2013)
Entries after “also recorded” stand apart in the source; their conditions may differ.

Key:
[1] = test system: C57BL/6J ob/ob mice; assay: Glucose lowering of (±) and (−) halofenate analogs in ob/ob mice (Example 12); assay type: in vivo; details: for time points with significantly reduced plasma glucose concentrations: 150 mg/kg oral single dose
[2] = target: T1, cyclooxygenase 1 (COX-1) (Homo sapiens, UniProt P23219); assay: COX-1 inhibition in human whole blood assay, TXB2 production (Example 19); assay type: cell-based
T1 construct: was conducted using fresh human blood from healthy donors; endogenous in cells; host or cells: heparinized fresh human whole blood, stimulated with calcium ionophore A23187
T1 sequence (P23219 24-599): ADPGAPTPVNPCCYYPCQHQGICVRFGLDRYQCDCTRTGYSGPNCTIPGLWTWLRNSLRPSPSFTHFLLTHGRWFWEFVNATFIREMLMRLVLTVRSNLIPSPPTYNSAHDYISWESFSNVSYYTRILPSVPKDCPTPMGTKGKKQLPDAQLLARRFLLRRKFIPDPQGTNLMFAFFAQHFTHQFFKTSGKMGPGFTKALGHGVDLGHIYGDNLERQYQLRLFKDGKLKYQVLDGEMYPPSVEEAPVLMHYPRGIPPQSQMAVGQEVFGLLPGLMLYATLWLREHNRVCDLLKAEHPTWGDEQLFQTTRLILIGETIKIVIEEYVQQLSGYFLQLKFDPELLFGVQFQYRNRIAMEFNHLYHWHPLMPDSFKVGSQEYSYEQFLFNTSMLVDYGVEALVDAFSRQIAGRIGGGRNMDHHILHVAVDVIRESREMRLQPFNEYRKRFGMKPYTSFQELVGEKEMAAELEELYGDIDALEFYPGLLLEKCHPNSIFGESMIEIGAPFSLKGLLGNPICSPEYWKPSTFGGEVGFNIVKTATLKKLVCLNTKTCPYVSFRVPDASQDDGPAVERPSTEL
Description: An assay for cyclooxygenase 1 (COX-1) inhibition by the compounds of the present invention was conducted using fresh human blood from healthy donors. […] The enzyme was activated by the commercially available calcium ionophore A23187.
This bioassay is based on the production of thromboxane B2 (TXB2) after COX-1 activation. When activated, COX-1 generates prostaglandin H2 which is then converted to thromboxane A2 (TXA2) by thromboxane synthase and then finally to thromboxane B2 by non-enzymatic […]. In addition, PGE2 levels were measured to exclude inhibition of thromboxane synthase. This assay allows discrimination between COX-1 and thromboxane synthase inhibition.
TXB2 and PGE2 were measured by commercially available immunoassay kits purchased from Assay Designs, Inc. (Ann Arbor, Mich.). All other chemicals were from Sigma except as noted. […] Immediately before use, all compounds were diluted 1:10 in RPMI-1640 medium (Gibco BRL, 11875-093) to make a 10× concentrated stock solution. The 10×RPMI-1640 stock solutions of the calcium ionophore were prepared in an identical manner. […] COX-1 was then activated by adding 25 microliters of the 10× stock solution of 25 micromolar calcium ionophore. The plates were shaken for 10 minutes at room temperature and then incubated at 37° C. for an additional 30 minutes. After these incubation times, the plates were centrifuged at 2,000 g for 5 minutes. Two microliters of plasma were taken from each reaction for the measurement of TXB2 using an enzyme immunoassay kit from Assay Designs, Inc. The PGE2 level in the same reaction was measured using a PGE2 enzyme immunoassay kit from Assay Designs, Inc.
The results of the assay are presented as the percent inhibition of COX-1 activity.

[3] = test system: Zucker diabetic fatty (ZDF) rats; assay: Lipid lowering in Zucker Diabetic Fatty rats (Example 11); assay type: in vivo; details: for plasma cholesterol, in words: Experiment I, 13 days, racemate 50 mg/kg/day, enantiomers 25 mg/kg/day
Description: Male Zucker diabetic fatty (ZDF) rats were obtained from GMI Laboratories (Indianapolis, Ind.) at 9 weeks of age. Vehicle or enantiomers of halofenate administered by oral gavage on a daily basis starting at 74 days of age. Initial blood samples were obtained for analysis one day before treatment and at the indicated times in the treatment protocol. Blood was analyzed for plasma triglyceride and cholesterol by standard techniques.

[4] = test system: C57BL/6J ob/ob mice; assay: Glucose and insulin lowering on daily oral administration in diabetic ob/ob mice (Example 9); assay type: in vivo; details: for plasma glucose relative to control animals, in words / plasma insulin relative to vehicle control, in words: daily oral, racemate 250 mg/kg/day, enantiomers 125 and 250 mg/kg/day
Description: The gavage volume was 10 ml/kg.

[5] = test system: C57BL/6J ob/ob mice; assay: Time course of glucose-lowering after a single oral dose in diabetic ob/ob mice (Example 8); assay type: in vivo; details: single oral dose 250 mg/kg; for plasma glucose at 24 hours: vehicle 408±16.2
[6] = test system: Zucker fa/fa rats; assay: Oral glucose challenge in Zucker fatty rats (Example 10); assay type: in vivo; details: racemate 100 mg/kg, enantiomers 50 and 100 mg/kg
Description: (§1) Prior to treatment, rats were assigned to 6 groups based on body weight. Each treatment group consisted of 8 rats. […] The gavage volume was 10 ml/kg. All rats received an oral glucose challenge (1.9 g/kg) 5.5 hours after the treatment and 4 hours after withdrawal of the food. Blood samples were taken at 0, 15, 30, 60, 90, 120, and 180 minutes following the glucose challenge for plasma glucose measurement. […] On day 5, rats received the intravenous insulin (0.75 U/kg) 5.5 hours after the last dose and 4 hours after withdrawal of the food. Blood samples were taken at 3, 6, 9, 12, 15 and 18 minutes following the insulin injection for plasma glucose measurement.

[7] = cited from earlier work
[8] = test system: ZDF rats; assay: Plasma glucose in ZDF rats, (−) halofenate vs (+) halofenate (Example 13); assay type: in vivo; details: 50 mg/kg oral once a day for 3 days
Description: Male 8-9 week old ZDF rats were purchased from Genetic Models, Inc. (Indianapolis, Ind.). […] Rats that had 4-hour fasting plasma glucose levels between 200 and 500 mg/dL were used. […] The gavage volume was 5 ml/kg. Blood samples were taken at 5 hours post dose on day 2 and 3.

[9] = test system: Zucker fa/fa rats; assay: Short insulin tolerance test in Zucker fatty rats (Example 10); assay type: in vivo; details: 50 mg/kg/day oral for 5 days
Description: as §1

[10] = test system: oxonic acid induced hyperuricemic rats; assay: Plasma uric acid in oxonic acid induced hyperuricemic rats (Example 17); assay type: in vivo, SD rats; details: oral 50 mg/kg for 3 days, 100 mg/kg on the 4th day; blood 6 hours post gavage on day 4
Excerpt: Male SD rats, weight 275-300 g were purchased from Charles River. […] To establish a hyperuricemic state, animals were put on a diet containing 2.5% (w/w) of oxonic acid (Sigma Chemical Co, St. Louis, Mo., USA) throughout the experiment. Oxonic acid elevates plasma uric acid by inhibiting uricase. Rats were screened for plasma uric acid levels 3 days after they were placed on the diet, and those that had extreme plasma uric acid levels were excluded. Rats were assigned to one of three groups and the mean uric acid levels were equivalent in each group. […] Oxonic acid was delivered in a liquid formulation containing 0.9% (w/v) methylcellulose. The gavage and injection volumes were 5 ml/kg. Blood samples were taken at 6 hours post oral gavage on day 4. Plasma uric acid levels were determined colorimetrically using the Infinity Uric Acid Reagent (Sigma Chemical Co, St. Louis, Mo., USA).

[11] = target: CYP2C9 (Homo sapiens, UniProt P11712)
Sequence of CYP2C9 (P11712 whole entry): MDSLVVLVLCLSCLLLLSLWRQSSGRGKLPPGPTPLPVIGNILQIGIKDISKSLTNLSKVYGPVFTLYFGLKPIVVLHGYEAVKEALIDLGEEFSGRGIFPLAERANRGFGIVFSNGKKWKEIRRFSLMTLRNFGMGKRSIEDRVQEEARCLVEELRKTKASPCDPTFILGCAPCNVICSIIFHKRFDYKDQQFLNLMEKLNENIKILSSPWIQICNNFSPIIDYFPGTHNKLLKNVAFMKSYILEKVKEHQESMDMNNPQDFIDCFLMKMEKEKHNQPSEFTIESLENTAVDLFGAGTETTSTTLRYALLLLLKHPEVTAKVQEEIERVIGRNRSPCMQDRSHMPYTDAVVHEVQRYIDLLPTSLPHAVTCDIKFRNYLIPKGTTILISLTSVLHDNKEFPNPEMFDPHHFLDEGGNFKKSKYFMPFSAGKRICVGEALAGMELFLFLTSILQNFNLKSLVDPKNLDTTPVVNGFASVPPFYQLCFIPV

[12] = Experiment II, 37.5 mg/kg/day (High dose)

SMILES: CN(C)CCOC(=O)C(Oc1cccc(C(F)(F)F)c1)c1ccc(Cl)cc1 (racemic) [(±)Analog 35]
- 6 hours Glucose ([1]; 125 mg/kg oral once a day, 6 hours after first dose): 319.6 ± 26.7 mg/dL
- 30 hours Glucose ([1]; 125 mg/kg oral once a day, 6 hours after second dose): 276.8 ± 17.6 mg/dL
- 54 hours Glucose ([1]; 125 mg/kg oral once a day, 6 hours after third dose): 286.2 ± 31.5 mg/dL
- Predose Glucose ([1]; baseline before dosing, group later given 125 mg/kg oral once a day): 387.0 ± 18.0 mg/dL

SMILES: NC(=O)COC(=O)C(Oc1cccc(C(F)(F)F)c1)c1ccc(Cl)cc1 (racemic) [(±)Analog 37]
- time points with significantly lowered plasma glucose concentrations ([1]; 125 mg/kg oral once a day): 54 h

SMILES: CC(=O)NCCOC(=O)C(Oc1cccc(C(F)(F)F)c1)c1ccc(Cl)cc1 (racemic) [racemic halofenate, 2-acetamidoethyl (4-chlorophenyl) (3-trifluoromethylphenoxy)acetate, reference compound]
- IC50 [2]: ~1000 µM
- plasma cholesterol, in words [3]: plasma cholesterol declined with treatment
- plasma glucose relative to control animals, in words [4]: Significant decreases in glucose levels
- plasma insulin relative to vehicle control, in words [4]: insulins were lower
- time course of glucose-lowering, in words [5]: significantly reduced plasma glucose concentrations at most of the timepoints
- time of peak glucose-lowering activity [5]: 9 h
- plasma glucose at 24 hours [5]: 259.3 ± 20.8 mg/dL
- incremental glucose area under the curve (AUC) relative to vehicle control, in words [6]: not statistically significant
- plasma glucose after oral glucose challenge, in words ([6]; single oral dose 5.5 hours before challenge): The plasma glucose was reduced
- side effects in patients ([7]; previous clinical studies (Friedberg et al. 1986)): gastrointestinal bleeding from stomach and peptic ulcers; also recorded: increased risk of gastrointestinal side effects such as upper gastrointestinal ulcers and bleeding
- effect on glucose in patients with diabetes treated with the drug alone ([7]; previous studies from the 1970's): minimal effect on glucose

SMILES: CC(=O)NCCOC(=O)C(Oc1cccc(C(F)(F)F)c1)c1ccc(Cl)cc1 (single isomer, unassigned; (+)) [(+) halofenate, (+) 2-Acetamidoethyl 4-Chlorophenyl-(3-trifluoromethylphenoxy)-acetate, reference compound]
- plasma glucose concentrations compared to vehicle-treated animals, in words [8]: failed to reduce plasma glucose concentrations
- plasma cholesterol, in words [3]: remained relatively constant
- days of treatment with significantly lower plasma cholesterol vs control [3, 12]: 7 days
- plasma triglyceride, in words [3, 12]: significant lowering of plasma triglyceride
- overnight fasting plasma insulin after 5 days treatment, in words ([4]; 125 mg/kg/day oral, ob/ob mice): did not lower plasma insulin
- overnight fasting plasma insulin after 5 days treatment, in words ([4]; 250 mg/kg/day oral, ob/ob mice): resulted in a decrease in plasma insulin
- plasma glucose following an overnight fast after 5 days treatment ([4]; 250 mg/kg/day oral, ob/ob mice, control 185.4±12.3): 127.2 ± 9.7 mg/dL
- plasma glucose relative to control animals, in words [4]: Significant decreases in glucose levels
- plasma insulin relative to vehicle control, in words [4]: insulins were lower
- earliest time of plasma glucose reduction / significant activity [5]: 4.5 h
- time of peak glucose-lowering activity [5]: 7.5 h
- plasma glucose at 24 hours [5]: 306 ± 28.5 mg/dL
- insulin sensitivity (slope of decline in glucose after i.v. insulin), in words [9]: small effect on insulin sensitivity that was not significantly different from the vehicle-treated control
- incremental glucose area under the curve (AUC) relative to vehicle control, in words [6]: not statistically significant
- plasma uric acid levels, in words [10]: lowered plasma uric acid levels, but it was not statistically significant

SMILES: CC(=O)NCCOC(=O)C(Oc1cccc(C(F)(F)F)c1)c1ccc(Br)cc1 (single isomer, unassigned; (-)) [(−)Analog 29]
- time points with significantly reduced plasma glucose concentrations [1]: 6 h

SMILES: O=C(NCCOC(=O)C(Oc1cccc(C(F)(F)F)c1)c1ccc(Cl)cc1)c1ccccc1 (single isomer, unassigned; (-)) [(−)Analog 36]
- time points with significantly reduced plasma glucose concentrations [1]: 6 h

SMILES: NC(=O)COC(=O)C(Oc1cccc(C(F)(F)F)c1)c1ccc(Cl)cc1 (single isomer, unassigned; (-)) [(−)Analog 37]
- time points with significantly reduced plasma glucose concentrations [1]: 6 h

SMILES: CN(C)C(=O)COC(=O)C(Oc1cccc(C(F)(F)F)c1)c1ccc(Cl)cc1 (single isomer, unassigned; (-)) [(−)Analog 38]
- time points with significantly reduced plasma glucose concentrations [1]: 6 h

SMILES: Nc1ccc(S(=O)(=O)Nc2ccnn2-c2ccccc2)cc1 [SFZ, sulfaphenazole, reference compound]
- 4-OH TB Production [11]: BQL
- % Inhibition (Tolbutamide, CYP2C9) ([11]; both, human, microsomes): ~100%
